IC50 data for ten molecules are collected here from US7893064B2, “Hydrazone derivatives as kinase inhibitors” (Janssen Pharmaceutica NV, priority 2006, dated 2011).

For orientation: IC50 means the concentration at which inhibition is half-maximal.

Assay [1] concerns the target T1, EGFR kinase (GST fusion of intracellular portion of EGFR, NM_005228) (Homo sapiens, UniProt P00533).
T1 construct: The intracellular portion of EGFR started at nucleotide 2189 (corresponding to amino acid 667) and ended at the termination codon; made in house; host or cells: Sf9 insect cells (baculovirus)
The assay can be described thus: EGFR Kinase Assay. The note with it: GSTEGFR, ATP 5 μM, biotinylated polyGluTyr, 33P Flashplate; read-out: EGFR Inhibition (%) IC50. In kind it is biochemical. The source says: The portion was PCR amplified with primers that added the lambda attB sequences to each end, recombined into an entry vector, then into a GST destination vector (as described in Gateway Technologies Manual by Invitrogen Corporation, Carlsbad, Calif.).
The destination vector was recombined in the DH10BAC strain of bacteria to produce a bacmid. The bacmid was transfected into Sf9 cells and the supernatant containing the baculovirus was collected. The GSTEGFR protein was purified using large cultures of Sf9 cells infected with stock virus. After an appropriate period of time, the cells were collected and lysed. The GSTEGFR was then purified from the lysate on Glutathione-Sepharose columns (as described by Amersham Biosciences, Buckinghamshire, United Kingdom).
The free biotin was separated from the biotinylated polyGluTyr on a gel filtration column.
A mixture of a 10× kinase buffer (500 mM Tris at pH 8.0, 100 mM Magnesium Chloride and 1 mM Sodium Vanadate), DTT (1 mM final from 500 mM stock), ATP (5 μM final from 10 mM stock), biotinylated polyGluTyr (10 μg/μL stock), γ-^33P ATP (10 μCi/μL stock) and water was added to each well (90 μL/well) of a Streptavidin Flashplate (Perkin Elmer, Wellesley, Mass.).
Test compound in 100% DMSO (2 μL) was added to the appropriate wells. Diluted GSTEGFR (1:300 dilution in 50 mM Tris at pH 8.0 and 0.1% bovine serum albumin) (10 μL) was added to the wells to initiate the reactions.
The plates were incubated at 30° C. for 1 hr with shaking. The reacted contents were removed and the plates were sequentially washed three times with a 1×PBS stop buffer (300 μL without Magnesium and Calcium) and 100 mM EDTA. After the final wash, the same stop buffer (200 μL) was added to the wells. The plates were then sealed and read on the TopCount scintillation counter.
Test compounds were assayed in triplicate at 16 concentrations at half-log dilutions starting at 200 uM. A maximum and minimum signal for the assay was determined on each plate. The percent inhibition of a test compound was calculated according to the formula
For a series of test concentrations, the IC50 was derived by graphing percent inhibition against the log of the concentrations tested for a given compound.

In assay [2] the target is T2, HER2 (GST-HIS6-Thrombin fusion, amino acids 679 to 1255 of HER-2) (Homo sapiens, UniProt P04626).
T2 construct: GST (N); HIS6 (N); thrombin cleavage site (N); purchased Proqinase, Freiburg, Germany
The experiment in a line: HER2 Screening Assay. It is filed as biochemical. The note with it: 10 μM ATP, biotin-poly(GT) 4:1, 33P FlashPlate. The procedure:
A kinase reaction mixture was prepared containing 50 mM Tris-HCl pH=8, 10 mM MgCl2, 0.1 mM […], 1 mM DTT, 10 μM ATP, 0.025 μM biotinylated histone-H1 peptide substrate and 0.2 μCuries per well ^33P-γ-ATP (2000-3000 Ci/mmol). 70 μL of the kinase reaction mixture was dispensed into the well of a streptavidin coated FlashPlate™ (Cat. # SMP103, NEN, Boston, Mass.).
Test compound stock in 100% DMSO (1 μL) was added to the wells resulting in a final concentration of 1% DMSO in the reaction with a 100 μL final reaction volume. Each enzyme was diluted in 50 mM Tris-HCl pH=8.0, 0.1% BSA and 30 μL was added to each well to initiate the reaction. The reaction was incubated for one hour at 30° C. At the end of the 1 hr incubation, the reaction was terminated by aspirating the mixture from the plate and washing the wells twice with PBS containing 100 mM EDTA. The biotinylated peptide substrate became immobilized on the Flashplate™ and the incorporation of ^33P-γ-ATP was measured by reading the plate on a scintillation counter. Inhibition of the enzymatic activity was measured by observing a reduced amount of ^33P-γ-ATP incorporated into the immobilized peptide.
The HER2 construct consisted of a fusion of GST (Glutathione-S-Transferase), HIS6 Thrombin and the nucleotides encoding amino acids 679 to 1255 of HER-2 (Accession number M11730) (Proqinase, Freiburg, Germany). The assay used 200 ng of the N-terminal biotinylated peptide biotin-poly(GT) 4:1 (HER2) per well.
A maximum and minimum signal for the assay was determined on each plate. The percent inhibition of a test compound was calculated according to the formula: […]
For a series of test concentrations, the IC50 was derived by graphing percent inhibition against the log of the concentrations tested for a given compound with results shown in Table 2.

The test system of assay [3] is BT474 breast carcinoma cells. The experiment in a line: Cell Proliferation Inhibition Assay (14C-thymidine incorporation), BT-474. It is filed as cell-based. The conditions noted are these: Homo sapiens, BT-474 cells. The source says:
(§1) The ability of a test compound to inhibit unregulated cell proliferation may be determined by measuring incorporation of ^14C-labelled thymidine into newly synthesized DNA within cell lines derived from carcinomas originating from several tissues. Accordingly, the anti-proliferative effect of a compound on cells with a variety of phenotypes may be determined.
(§2) Carcinoma cell lines were obtained from the American Type Culture Collection (ATCC) and include those such as N87 (ATCC Cat. #), SKBR3 breast carcinoma (ATCC Cat. #HTB-30) and BT474 breast carcinoma (ATCC Cat. #HTB-20)
(§3) The carcinoma cells are trypsinized and counted. The cells (3000-8000 count) are added to each well of a 96-well CytoStar tissue culture treated scintillating microplate (Amersham #RPNQ0160) in complete medium (100 μL) and the plate is then incubated in complete medium for 24 hrs at 37° C. in an inert atmosphere containing 5% CO2. Test compound (1 μL) in 100% DMSO is added to the plate test-wells with DMSO only added to control-wells. The plate is incubated in complete medium for a second 24 hr period at 37° C. in an atmosphere containing 5% CO2.
(§4) An aliquot of a solution of Methyl ^14C-thymidine (56 mC/mmol) (NEN #NEC568 or Amersham #CFA532) and complete medium (20 μL to provide 0.2 μCi/well) is then added to each well and the plate is incubated for a third 24 hr period at 37° C. in an atmosphere containing 5% CO2. The plate contents are then discarded, the plate is washed twice with PBS (200 μL) and then PBS (200 μL) is added to each well. The plate is sealed and the degree of methyl ^14C-thymidine incorporation is quantified on a Packard Top Count.

Assay [4] concerns SKBR3 breast carcinoma cells. The experiment in a line: Cell Proliferation Inhibition Assay (14C-thymidine incorporation), SK-BR-3. In kind it is cell-based. The conditions noted are these: Homo sapiens, SK-BR-3 cells.
Excerpt: as §1, §2, §3, §4
For orientation: Incorporation of labelled thymidine or its analogues reports DNA synthesis.

The test system of a further assay is N87 carcinoma cells. The experiment in a line: Cell Proliferation Inhibition Assay (14C-thymidine incorporation), N87. In kind it is cell-based.
Excerpt: as §1, §2, §3, §4

T1 sequence (P00533 669-1210 limits assumed): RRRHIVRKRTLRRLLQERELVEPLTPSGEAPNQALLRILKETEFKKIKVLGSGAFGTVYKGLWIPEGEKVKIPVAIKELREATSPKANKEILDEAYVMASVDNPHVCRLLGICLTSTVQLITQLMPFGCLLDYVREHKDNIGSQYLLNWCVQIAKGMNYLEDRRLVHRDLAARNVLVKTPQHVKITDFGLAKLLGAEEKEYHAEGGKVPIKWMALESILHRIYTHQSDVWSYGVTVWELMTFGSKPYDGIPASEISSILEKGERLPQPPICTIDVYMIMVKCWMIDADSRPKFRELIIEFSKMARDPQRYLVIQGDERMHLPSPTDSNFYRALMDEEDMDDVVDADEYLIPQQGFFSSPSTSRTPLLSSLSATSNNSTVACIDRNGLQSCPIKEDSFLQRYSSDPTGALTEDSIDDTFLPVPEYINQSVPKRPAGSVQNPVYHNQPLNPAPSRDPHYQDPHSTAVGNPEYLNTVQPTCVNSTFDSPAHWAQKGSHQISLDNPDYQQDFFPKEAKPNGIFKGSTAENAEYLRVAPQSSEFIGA
T2 sequence (P04626 679-1255): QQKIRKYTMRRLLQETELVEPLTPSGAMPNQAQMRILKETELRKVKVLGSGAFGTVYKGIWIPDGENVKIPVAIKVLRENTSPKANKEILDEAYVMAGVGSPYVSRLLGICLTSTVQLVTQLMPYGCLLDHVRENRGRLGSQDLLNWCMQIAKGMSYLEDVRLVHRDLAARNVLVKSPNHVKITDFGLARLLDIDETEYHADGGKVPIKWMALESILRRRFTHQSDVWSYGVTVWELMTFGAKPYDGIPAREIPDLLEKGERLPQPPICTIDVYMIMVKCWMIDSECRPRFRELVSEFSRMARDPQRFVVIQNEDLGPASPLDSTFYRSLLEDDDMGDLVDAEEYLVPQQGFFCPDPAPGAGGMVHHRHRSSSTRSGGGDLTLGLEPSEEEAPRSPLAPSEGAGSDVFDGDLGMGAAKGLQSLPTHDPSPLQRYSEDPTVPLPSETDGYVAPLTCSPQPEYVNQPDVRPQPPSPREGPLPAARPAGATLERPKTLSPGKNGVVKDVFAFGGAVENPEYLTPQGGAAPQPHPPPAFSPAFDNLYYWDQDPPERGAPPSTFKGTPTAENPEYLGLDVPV

In the case of `COc1ccc(NN=Cc2c(N)ncnc2Nc2ccc3c(cnn3Cc3cccc(F)c3)c2)cc1` [Cpd 1, N-[1-(3-fluoro-benzyl)-1H-indazol-5-yl]-5-[(4-methoxy-phenyl)-hydrazonomethyl]-pyrimidine-4,6-diamine], the IC50 in assay [1] was 49 nM; in assay [2] it was 118 nM.

As for `CNN=Cc1c(N)ncnc1Nc1ccc2c(cnn2Cc2cccc(F)c2)c1` [Cpd 2, N-[1-(3-fluoro-benzyl)-1H-indazol-5-yl]-5-(methyl-hydrazonomethyl)-pyrimidine-4,6-diamine], the IC50 in assay [1] is 12.4 nM; in assay [2] it was 83.6 nM.

For `Nc1ncnc(Nc2ccc3c(cnn3Cc3cccc(F)c3)c2)c1C=NN1CCCCC1` [Cpd 3, N-[1-(3-fluoro-benzyl)-1H-indazol-5-yl]-5-(piperidin-1-yliminomethyl)-pyrimidine-4,6-diamine], the IC50 was 48.5 nM in assay [3], 691 nM in assay [4], 365 nM in the assay with N87 carcinoma cells and 18.3 nM in assay [2].

As for `Nc1ncnc(Nc2ccc3c(cnn3Cc3cccc(F)c3)c2)c1C=NN1CCOCC1` [Cpd 4, N-[1-(3-fluoro-benzyl)-1H-indazol-5-yl]-5-(morpholin-4-yliminomethyl)-pyrimidine-4,6-diamine], the IC50 in assay [3] came out at 30.5 nM; in assay [4], 122 nM; with N87 carcinoma cells it was 90.5 nM; in assay [1], 16.5 nM; in assay [2], 6.6 nM.

In the case of `CN(C)/N=C/c1c(N)ncnc1Nc1ccc2c(cnn2Cc2cccc(F)c2)c1` [Cpd 5, 5-(dimethyl-hydrazonomethyl)-N-[1-(3-fluoro-benzyl)-1H-indazol-5-yl]-pyrimidine-4,6-diamine], the IC50 in assay [3] is 63 nM; in assay [4], 148 nM; in the assay on N87 carcinoma cells, 131 nM; in assay [1], 8.2 nM; in assay [2], 2.4 nM.

`CN1CCN(N=Cc2c(N)ncnc2Nc2ccc3c(cnn3Cc3cccc(F)c3)c2)CC1` [Cpd 6, N-[1-(3-fluoro-benzyl)-1H-indazol-5-yl]-5-[(4-methyl-piperazin-1-ylimino)-methyl]-pyrimidine-4,6-diamine]: the IC50 in assay [1] was found to be 15.6 nM; in assay [2] it was 8.4 nM.

`COC[C@H]1CCCN1N=Cc1c(N)ncnc1Nc1ccc2c(cnn2Cc2cccc(F)c2)c1` [Cpd 7, N-[1-(3-fluoro-benzyl)-1H-indazol-5-yl]-5-{[(2R)-2-methoxymethyl-pyrrolidin-1-ylimino]-methyl}-pyrimidine-4,6-diamine]: the values for the IC50 in assay [1] and in assay [2] were 31.2 nM and 72.2 nM, respectively.

As to `COC[C@@H]1CCCN1N=Cc1c(N)ncnc1Nc1ccc2c(cnn2Cc2cccc(F)c2)c1` [Cpd 8, N-[1-(3-fluoro-benzyl)-1H-indazol-5-yl]-5-{[(2S)-2-methoxymethyl-pyrrolidin-1-ylimino]-methyl}-pyrimidine-4,6-diamine], the IC50 in assay [1] came out at 26.5 nM; in assay [2] it was 38.8 nM.

In the case of `Nc1ncnc(Nc2ccc3c(cnn3Cc3cccc(F)c3)c2)c1C=NN1CCN(CCO)CC1` [Cpd 9, 2-[4-({4-amino-6-[1-(3-fluoro-benzyl)-1H-indazol-5-ylamino]-pyrimidin-5-ylmethylene}-amino)-piperazin-1-yl]-ethanol], the IC50 in assay [3] stood at 13.5 nM; in assay [4] it was 58.5 nM; with N87 carcinoma cells, 58.4 nM; in assay [1] it was 9.77 nM; in assay [2], 8.37 nM.

As for `Nc1ncnc(Nc2ccc3c(cnn3Cc3cccc(F)c3)c2)c1C=NNCC(F)(F)F` [Cpd 10, N-[1-(3-fluoro-benzyl)-1H-indazol-5-yl]-5-[(2,2,2-trifluoro-ethyl)-hydrazonomethyl]-pyrimidine-4,6-diamine], the IC50 was 52.9 nM in assay [1] and 19.8 nM in assay [2].
